Target: T1, Mitogen-activated protein kinase kinase kinase 19 (Homo sapiens, UniProt Q56UN5)
T1 sequence (Q56UN5 whole entry): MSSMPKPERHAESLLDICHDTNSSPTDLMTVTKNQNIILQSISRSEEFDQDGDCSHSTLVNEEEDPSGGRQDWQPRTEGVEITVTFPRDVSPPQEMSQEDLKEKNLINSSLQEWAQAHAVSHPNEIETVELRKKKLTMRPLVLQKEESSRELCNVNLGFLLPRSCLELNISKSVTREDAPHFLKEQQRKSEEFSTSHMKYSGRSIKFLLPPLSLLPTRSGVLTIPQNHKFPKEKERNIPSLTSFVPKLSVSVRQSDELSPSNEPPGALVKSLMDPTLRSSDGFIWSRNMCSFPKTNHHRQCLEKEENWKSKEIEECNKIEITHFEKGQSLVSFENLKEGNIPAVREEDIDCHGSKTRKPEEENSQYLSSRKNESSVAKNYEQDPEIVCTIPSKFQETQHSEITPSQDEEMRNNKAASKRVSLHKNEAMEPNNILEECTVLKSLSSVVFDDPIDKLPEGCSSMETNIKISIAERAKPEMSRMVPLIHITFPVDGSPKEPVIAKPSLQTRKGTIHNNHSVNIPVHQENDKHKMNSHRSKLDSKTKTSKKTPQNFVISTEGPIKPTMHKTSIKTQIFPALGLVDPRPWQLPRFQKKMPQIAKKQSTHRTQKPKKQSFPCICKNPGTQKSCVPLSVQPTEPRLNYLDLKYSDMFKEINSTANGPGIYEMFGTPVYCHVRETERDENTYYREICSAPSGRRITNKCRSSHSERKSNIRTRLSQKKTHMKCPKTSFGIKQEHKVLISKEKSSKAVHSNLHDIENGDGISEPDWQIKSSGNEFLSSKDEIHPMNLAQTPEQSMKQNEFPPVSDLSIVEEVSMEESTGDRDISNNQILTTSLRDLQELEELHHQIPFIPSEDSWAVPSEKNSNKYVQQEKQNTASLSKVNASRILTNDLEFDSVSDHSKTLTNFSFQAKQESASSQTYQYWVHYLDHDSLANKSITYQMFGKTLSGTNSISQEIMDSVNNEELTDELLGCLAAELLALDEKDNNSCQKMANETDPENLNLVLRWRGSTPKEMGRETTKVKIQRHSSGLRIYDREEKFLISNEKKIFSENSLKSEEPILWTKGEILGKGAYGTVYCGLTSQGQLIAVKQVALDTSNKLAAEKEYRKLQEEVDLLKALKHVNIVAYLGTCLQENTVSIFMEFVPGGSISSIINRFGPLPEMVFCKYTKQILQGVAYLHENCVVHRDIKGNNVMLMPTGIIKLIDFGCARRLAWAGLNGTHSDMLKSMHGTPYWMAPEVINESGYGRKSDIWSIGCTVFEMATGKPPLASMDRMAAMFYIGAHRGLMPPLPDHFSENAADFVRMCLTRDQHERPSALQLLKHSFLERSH
Test: In Vitro Effect Assay: Table 5: The experimental procedure referred to the Z′-LYTE Screening Protocol and Assay Conditions provided by ThermoFisher Scientific. C-1. […] Peptide/Kinase Mixture was pre-diluted with Kinase Buffer to 2× working concentration. ATP solution was pre-diluted with Kinase Buffer (50 mM HEPES pH 7.5, 0.01% BRIJ-35, 10 mM MgCl2, 1 mM EGTA) to 4× working concentration. […], which contains 2 mg/mL Phosphatidyl Serine, 0.2 mg/mL DAG in 20 mM HEPES, pH 7.4 and 0.3% CHAPS, and was pre-diluted 10 fold with development buffer.C-2. Analytical Method. 1. 100 nL of the above diluted test compound and 2.4 μL of kinase buffer were added to a black 384-well plate (Corning, Cat. NO. 4514), then add 5 μL of the peptide/kinase mixture mentioned above was added thereto, and after that 2.5 μL of ATP solution was added thereto, and the culture plate was shaken for 30 seconds.2. Next, the culture plate was placed at room temperature and incubated for 60 minutes.3. After that 5 μL of the development reagent solution was added and the culture plate was shaken for 30 seconds in the dark, and then the data was read and analyzed with a fluorescence plate reader. […]

Structure (SMILES) | IC50 [µM]
NCC(Oc1ccc(C(F)(F)F)cc1)C(=O)Nc1ccc(-c2cn[nH]c2)cc1 (configuration not stated) | > 10
NCC(C(=O)Nc1ccc(-c2cn[nH]c2)cc1)c1ccc(CO)cc1 (configuration not stated) | > 1
